Laboratory results published in article PMC10380841, “Synthesis, Characterization and Cytotoxic Evaluation of New Pyrrolo[1,2-b]pyridazines Obtained via Mesoionic Oxazolo-Pyridazinones” (International Journal of Molecular Sciences, 2023).
“Also recorded” adds a separate entry of the source. Read-outs that look alike come from different tables or passages of the source.

Legend:
[1] = test system: MCF-7 breast adenocarcinoma cells; test: MTS cytotoxicity assay, MCF-7; assay type: cell-based, human
Procedure: Therefore, the precursor acids 2a–c and corresponding pyrrolo[1,2-b]pyridazines 5a–c,f were tested for their potential cytotoxic activity. During the assays, increasing concentrations of the compounds, ranging from […], were added for 24 h or 48 h to cancer LoVo, SK-OV-3, MCF-7, and the reference HUVEC cells, previously cultured for 24 h in 96-well flat bottom plates. […] Then, MTS reagent was added, and cells were incubated for 4 h at 37 °C in a 5% CO2 humidified atmosphere. The absorbance values were spectrophotometrically read to a Dynex ELISA reader at λ = […].
For the evaluation of the in vitro potential anti-proliferative effects of treatments with the new compounds under study against solid tumor-derived cells, several compound-mediated cytotoxicity assays were performed on three adherent tumor standardized cell lines, and normal human endothelial cells, used as control: the MCF-7 human breast adenocarcinoma and SK-OV-3 human ovary adenocarcinoma cell lines were provided from European Collection of Authenticated Cell Cultures (ECACC), while LoVo, human colorectal adenocarcinoma cell line, and HUVEC human umbilical vein endothelial cells were purchased from American Type Culture Collection (ATCC).
Adherent cells were cultivated in DMEM/F12 medium added with 2 mM L-glutamine and 10% fetal bovine serum, 100 units/mL penicillin, 100 µg/mL streptomycin (Sigma Aldrich, St. Louis, MO, USA) and incubated at 37 °C in 5% CO2 humidified atmosphere. The stock solutions for cell treatments were prepared by dissolving the synthesized compounds in a minimum amount of DMSO. Working dilutions were prepared from the stock solutions in culture medium before each treatment assay. After 24 h, when cell cultures achieved around 70% confluence, treatments were applied for various periods of time with different concentrations of synthesized compounds or oncolytic drugs, used as positive controls.
Therefore, cell cultures treated with the new compounds or oncolytic drugs for 24 h or 48 h were further subjected to a colorimetric cell viability method, the MTS assay. The absorbance of probes was read, data were calculated, and percentages of cell viability were assessed.
The evaluation of the compound-induced cytotoxicity was made using the CellTiter 96 Aqueous One Solution Cell Proliferation Assay (Promega, Madison, WI, USA), a reagent that contains both MTS (3-(4,5-dimethylthiazol-2-yl)-5-(3-carboxymethoxyphenyl)-2-(4-sulfophenyl)-2H-tetrazolium, inner salt) and PES ([…], a cationic dye with high chemical stability that binds to MTS and forms a stable solution). The assay is based on the ability of the metabolically active cells to reduce the yellow tetrazolium salt MTS to a compound that is soluble in culture medium, the colored formazan, followed by the spectrophotometric evaluation of its concentration.
Briefly, 1.5 × 10^4 cancer or normal cells were cultured in 100 µL/well for 24 h. After the culture supernatants were discarded, cells were treated for additional 24 h or 48 h with increasing concentrations of new compounds or oncolytic drugs. Following the specific treatments, in each well a volume of 20 µL of coloring mixture reagent of MTS and PES was added, and then the plates were incubated with mild agitation every 20 min for 4 h at 37 °C. The color developed during incubation was spectrophotometrically quantified at λ = 492 nm using a Dynex ELISA reader (DYNEX Technologies—MRS, Chantilly, VA, USA).
Data were expressed as percentages of cell viability of the treated cells, and were calculated and compared to the untreated cells (considered 100% viable), using the formula:Cell viability (%) = (T − B)/(U − B) × 100 where T = absorbance of treated cells, U = absorbance of untreated cells, and B = absorbance of culture medium (blank), for λ = 492 nm.
The cell viability data were expressed as the mean values ± standard deviations (SD) of three different experiments (n = 3). […]

Daphnia magna Straus = test: Daphnia magna toxicity assay; assay type: in vivo; details: 48 h
Procedure: (§1) Young organisms of Daphnia magna were selected according to their size from a parthenogenetic culture maintained in an artificial medium for 24 h before the bioassay. The determination was conducted in tissue culture plates with 12 wells (Greiner Bio-One, Monroe, NC, USA), with 10 organisms in each well, and a final volume of 3 mL per sample [65, 66]. As a negative control, DMSO was used at a concentration of 1%. All compounds were tested at six different concentration levels, ranging from 12.5 to 500 μg/mL. All assessments were performed in duplicate.

[2] = Daphnia magna toxicity assay; assay type: in vivo; details: Daphnia magna, in vivo; 48 h
Procedure: as §1

[3] = test system: Triticum vulgare root tips; test: Microscopic examination of Triticum root tips (mitotic film changes); assay type: in vivo; details: 1000 μM, 24 h contact
Procedure: Microscopic examination of Triticum vulgare root tips followed the mitotic film changes induced by the tested compounds. Observations were made after 24 h of contact of the caryopses with the test solutions. The study was made in comparison with DMSO control maintained under the same conditions as the samples. To obtain microscopic preparations, sectioning of wheat embryonic roots was carried out at about 5 mm from the tip and stained with dilute […] according to the La Cour procedure. The examination was conducted on a Euromex oxion series 110–240 V/50–60 Hz microscope with digital camera CEMEX 5 DC 5000 C and 40× and 100× lenses with cedar oil immersion (Sigma-Aldrich St. Louis, MO, USA).

CCOC(=O)c1cc(CC)n2nc(-c3ccc(F)cc3)ccc12 [Compound 5e, Ethyl 7-ethyl-2-(4-fluorophenyl)pyrrolo[1,2-b]pyridazine-5-carboxylate]
viability at 400 µM ([1]; Homo sapiens, MCF7, MCF-7, 400 μM, 48 h, read-out: cell viability): 73.1%
IC50 ([1]; Homo sapiens, MCF7, MCF-7, 24 h, read-out: IC50 MCF-7 24 h): ≥ 400 µM
IC50 ([1]; Homo sapiens, MCF7, MCF-7, 48 h, read-out: IC50 MCF-7 48 h): ≥ 400 µM
cell viability ([1]; MCF-7, 100–400 μM, 48 h): less than 90%
toxicity on Daphnia magna (Daphnia magna Straus): moderate toxicity
LC50 at 48 h [2]: 675 µM
mitotic film / cell changes in root tips [3]: undulated cell walls and modified shaped nuclei; also recorded: mitoinhibition
